According to patent US20080255107A1, “Fungicidal Mixtures Comprising N-[2-(Haloalk(Enyl)Oxy)Phenyl]Carboxamides” (BASF SE, priority 2005, published 2008):

What was measured:
Format in all cases: in vivo
[1] = test system: Puccinia recondita; test: Curative activity against brown rust of wheat caused by Puccinia recondita; settings: single active compound, wheat seedlings, sprayed 1 day after inoculation, read after 7 days, efficacy in % of untreated control (Abbot)
Method: The active compounds, separately or jointly, were prepared as a stock solution comprising 25 mg of active compound which was made up to 10 ml using a mixture of acetone and/or dimethyl sulfoxide and the emulsifier Uniperol® EL (wetting agent having an emulsifying and dispersing action based on ethoxylated alkylphenols) in a ratio by volume of solvent/emulsifier of 99:1. The mixture was then made up to 100 ml with water. This stock solution was diluted with the solvent/emulsifier/water mixture described to give the concentration of active compound stated below. Alternatively, the active compounds triticonazole and pyraclostrobin were used as a commercial finished formulation and diluted with water to the stated active compound concentrations. The visually determined percentages of infected leaf areas were converted into efficacies in % of the untreated control: The efficacy (E) is calculated as follows using Abbot's formula: E=(1−α/β)·100 α corresponds to the fungicidal infection of the treated plants in % and β corresponds to the fungicidal infection of the untreated (control) plants in % An efficacy of 0 means that the infection level of the treated plants corresponds to that of the untreated control plants; an efficacy of 100 means that the treated plants were not infected. The expected efficacies of active compound combinations were determined using Colby's formula (Colby, S. R. “Calculating synergistic and antagonistic responses of herbicide combinations”, Weeds, 15, pp. 20-22, 1967) and compared with the observed efficacies. E=x+y−x·y/100 Colby's formula • E expected efficacy, expressed in % of the untreated control, when using the mixture of the active compounds A and B at the concentrations a and b; • x efficacy, expressed in % of the untreated control, when using the active compound A at the concentration a; • y efficacy, expressed in % of the untreated control, when using the active compound B at the concentration b. […] The extent of the rust fungus development on the leaves was then determined.

[2] = test system: Botrytis cinerea; test: Activity against gray mold on bell pepper leaves caused by Botrytis cinerea, 1 day protective application; settings: single active compound, assessed after 5 days
Method: The active compounds, separately or jointly, were prepared as a stock solution comprising 25 mg of active compound which was made up to 10 ml using a mixture of acetone and/or dimethyl sulfoxide and the emulsifier Uniperol® EL (wetting agent having an emulsifying and dispersing action based on ethoxylated alkylphenols) in a ratio by volume of solvent/emulsifier of 99:1. The mixture was then made up to 100 ml with water. This stock solution was diluted with the solvent/emulsifier/water mixture described to give the concentration of active compound stated below. Alternatively, the active compounds triticonazole and pyraclostrobin were used as a commercial finished formulation and diluted with water to the stated active compound concentrations. The visually determined percentages of infected leaf areas were converted into efficacies in % of the untreated control: The efficacy (E) is calculated as follows using Abbot's formula: E=(1−α/β)·100 α corresponds to the fungicidal infection of the treated plants in % and β corresponds to the fungicidal infection of the untreated (control) plants in % An efficacy of 0 means that the infection level of the treated plants corresponds to that of the untreated control plants; an efficacy of 100 means that the treated plants were not infected. The expected efficacies of active compound combinations were determined using Colby's formula (Colby, S. R. “Calculating synergistic and antagonistic responses of herbicide combinations”, Weeds, 15, pp. 20-22, 1967) and compared with the observed efficacies. E=x+y−x·y/100 Colby's formula • E expected efficacy, expressed in % of the untreated control, when using the mixture of the active compounds A and B at the concentrations a and b; • x efficacy, expressed in % of the untreated control, when using the active compound A at the concentration a; • y efficacy, expressed in % of the untreated control, when using the active compound B at the concentration b. […] After 5 days, the extent of the fungal infection on the leaves could be determined visually in %.

[3] = test system: Alternaria solani; test: Activity against early blight of tomato caused by Alternaria solani (protective spray, potted tomato plants); settings: single active compound, 16 mg/l; tomato leaves, sprayed 1 day before infection, read after 5 days; efficacy in % of untreated control (Abbot)
Method: The active compounds, separately or jointly, were prepared as a stock solution comprising 25 mg of active compound which was made up to 10 ml using a mixture of acetone and/or dimethyl sulfoxide and the emulsifier Uniperol® EL (wetting agent having an emulsifying and dispersing action based on ethoxylated alkylphenols) in a ratio by volume of solvent/emulsifier of 99:1. The mixture was then made up to 100 ml with water. This stock solution was diluted with the solvent/emulsifier/water mixture described to give the concentration of active compound stated below. […] The visually determined percentages of infected leaf areas were converted into efficacies in % of the untreated control: The efficacy (E) is calculated as follows using Abbot's formula: E=(1−α/β)·100 α corresponds to the fungicidal infection of the treated plants in % and β corresponds to the fungicidal infection of the untreated (control) plants in % An efficacy of 0 means that the infection level of the treated plants corresponds to that of the untreated control plants; an efficacy of 100 means that the treated plants were not infected. The expected efficacies of active compound combinations were determined using Colby's formula (Colby, S. R. “Calculating synergistic and antagonistic responses of herbicide combinations”, Weeds, 15, pp. 20-22, 1967) and compared with the observed efficacies. […]

Row | Compound | Observed activity (% infection) ([1]; 63 mg/l) [%] | Observed activity (% infection) ([2]; 63 mg/l) [%] | Observed efficacy (% of untreated control, Abbott) [3] [%] | Observed activity (% infection) ([1]; 0.25 mg/l) [%] | Observed activity (% infection) ([2]; 16 mg/l) [%]
1 | COc1ccc(C(=CC(=O)N2CCOCC2)c2ccc(Cl)cc2)cc1OC [Dimethomorph, 3-(4-chlorophenyl)-3-(3,4-dimethoxyphenyl)-1-morpholin-4-yl-propenone] | 0 | 0 |  |  | 
2 | COc1cc(C)c(C(=O)c2c(OC)ccc(Br)c2C)c(OC)c1OC [Metrafenone, 3′-bromo-2,3,4,6′-tetramethoxy-2′,6-dimethylbenzophenone] | 0 | 0 |  |  | 
3 | CC1(C)CC/C(=C\c2ccc(Cl)cc2)C1(O)Cn1cncn1 (stereo not shown) [Triticonazole, (5E)-5-[(4-chlorophenyl)methylene]-2,2-dimethyl-1-(1H-1,2,4-triazol-1-ylmethyl)cyclopentanol] |  |  | 20 | 0 | 
4 | COC(=O)N(OC)c1ccccc1COc1ccn(-c2ccc(Cl)cc2)n1 [pyraclostrobin] |  |  |  |  | 11
